Data: patent publication US20250288562A1, “Methods and Compositions for Treating Hidradenitis Suppurativa” (Regranion, LLC, priority 2022, published 2025)
Values joined by “and” are separate entries in the source; they are usually repeats but may differ in a detail not shown here. Equal entries are not always repeated. Where two headings read alike, the source gives them in different places.

Key:
[1] = tested on: subjects with moderate to severe hidradenitis suppurativa; test: Placebo controlled clinical study of Compound 1 in hidradenitis suppurativa patients; assay type: in vivo, human
Procedure: A placebo controlled clinical study was conducted to assess the efficacy of Compound 1 in HS patients. The study design is summarized below.
Fifteen patients were entered into the study and randomly assigned to the Compound 1 arm (10 patients) or the placebo arm (5 patients). The study was open to male or female subjects aged 18 years or older with hidradenitis suppurativa with minimum 5 inflammatory nodules in at least 2 distinct anatomic areas. The study was conducted in Denmark.
The study duration was approximately 24 weeks, including a 4-week screening phase, a 16-week treatment phase, and a 4-week observational follow-up phase to assess for hidradenitis suppurativa relapse and flare.
The primary objective of the study was to evaluate the efficacy of Compound 1 in subjects with moderate to severe hidradenitis suppurativa. The secondary objectives were to (1) evaluate the efficacy of Compound 1 on other clinical disease activity parameters in subject with moderate to severe hidradenitis suppurativa and (2) to evaluate the safety of Compound 1 in subjects with moderate to severe hidradenitis suppurativa.
The primary efficacy endpoint of the study was the percentage of subjects achieving Hidradenitis Suppurativa Clinical Response 50 (HiSCR-50) score at Week 16. The secondary efficacy endpoints were: • (1) the percentage of subjects with Hidradenitis Suppurativa Physician's Global Assessment (HS-PGA) scores of clear or minimal at Weeks 2, 4, 8, 12, 14, 16, and 20; • (2) the percentage of subjects achieving HiSCR-50, HiSCR-75, and HISCR-90 at Weeks 2, 4, 8, 12, 14, 16, and 20; • (3) changes from baseline in the Dermatology Life Quality Index (DLQI) total score at Weeks 4, 8, 12, 16, and 20; • (4) changes from baseline in the Pain Numerical Ranging score at Weeks 4, 8, 12, 16, and 20; • (5) change and percent change from Baseline in lesion counts (abscess count, inflammatory nodule count, AN count, and draining tunnel count); • (6) change from baseline in skin biomarkers at Week 16; • (7) change from baseline in blood biomarkers at Weeks 4, 8, 12, and 16.
This was a 16-week treatment, randomized, double-blind, proof-of-concept study designed to assess the safety and efficacy of Compound 1 compared to placebo for use in future efficacy Phase 2 trials.
Eligible subjects completed an up-to 4-week screening phase and sequentially be randomized 2:1 to one of two cohorts, treatment cohort (n=10) or placebo-control cohort (n=5), in a 16-week treatment phase followed by a 4-week observational follow-up phase. In the 16-week treatment phase, subjects randomized to the treatment group receive 250 mg Compound 1 free base in the form of a tablet administered orally once daily. The 250 mg dose was selected based on the results of an earlier oncology trial conducted with doses in excess of 1000 mg/day as a safe minimal dose from which to conduct dose escalation if required. Subjects randomized to the placebo-control group receive placebo treatment once daily (microcrystalline cellulose, mannitol, crospovidone, Opadry II red, magnesium stearate, colloidal silicon dioxide).
HiSCR, HS-PGA, Pain-NRS, and DLQI were performed to assess efficacy. Safety was assessed with the vital signs, physical examination, clinical laboratory tests, ECG, and collection of AEs.

[2] = tested on: HSP-90; conditions: read-out: IC50 for inhibition of HSP-90; cited from earlier work
[3] = Plasma pharmacokinetics after a single oral dose in healthy male subjects; assay type: in vivo, human; conditions: single oral dose of 250 mg; for Cmax: male, human, po, 250 mg
Procedure: The skin accumulation found in this study was compared to plasma levels of Compound 1 determined in a previous study in healthy human volunteers. Six healthy male subjects were given a single oral dose of 250 mg Compound 1, and plasma samples were collected pre-dose and at 0.25, 0.5, 0.75, 1, 1.5, 2, 2.5, 3, 4, 6, 8, 10, 12, 18, 24, 30, 36, 48, 72 and 96 hours after dosing.

[4] = Accumulation of Compound 1 in skin punch biopsies of HS patients; assay type: in vivo, human
Procedure: The accumulation of Compound 1 in the skin of human HS patients in the clinical study described in Example 1 was determined. […] FIG. 6 is a graph showing the concentrations of Compound 1 found in the biopsied tissues in subjects grouped according to their clinical response to Compound 1 therapy. The mean skin concentration following 16 weeks of treatment with Compound 1 was 7130 ng/mg, which is equivalent to 16.1 mM.

[5] = individual healthy male subjects
[6] = following 16 weeks of treatment, 250 mg orally once daily, skin punch biopsies

CN(C)c1cc2c(cc1Sc1nc3c(N)nccc3n1CCNCC(C)(C)C)OCO2 [Compound 1]
likelihood of achieving HiSCR50 ([1]; beginning at 12 weeks and continuing to 16 weeks, 250 mg orally once daily, compared to control): substantially more likely to achieve HiSCR50
subjects achieving HiSCR75 ([1]; by 14 weeks, 250 mg orally once daily, no subjects in the control): 50%
subjects achieving HiSCR90 ([1]; by 16 weeks, 250 mg orally once daily, no subjects in the control): 30%
IHS4 at baseline ([1]; individual subjects of the Compound 1 arm, before treatment): 17 and 43 and 14 (2×) and 10 and 6 and 20 (2×) and 28 and 11
IHS4 at week 16 ([1]; individual subjects of the Compound 1 arm, 250 mg orally once daily for 16 weeks): 4 (2×) and 22 and 3 and 7 (2×) and 21 and 6 and 10 and 2
decrease in abscess/nodule (AN) count relative to baseline ([1]; week 16, 250 mg orally once daily, compared to control): substantially greater decrease in AN count
average decrease in HS-PGA compared to baseline ([1]; week 16, 250 mg orally once daily, control arm showed no change): 0.8
subjects showing a decrease in IHS4 score ([1]; week 16 versus baseline, Compound 1 arm (n=10)): Nine of the ten
Cmax ([3]; read-out: Cmax, range over six subjects): 19.4 to 24.9 ng/mL
Cmax ([3]; six subjects, read-out: Cmax, median): 20.3 ng/mL
Cmax ([3]; six subjects, read-out: Cmax, median (molar)): 46 nM
AUClast [3, 5]: 51.64 ng·h/mL and 70.13 ng·h/mL and 36.82 ng·h/mL and 25.64 ng·h/mL and 45.08 ng·h/mL and 54.08 ng·h/mL
AUC∞ [3, 5]: 51.64 ng·h/mL and 85.79 ng·h/mL and 36.82 ng·h/mL and 25.64 ng·h/mL and 45.08 ng·h/mL and 54.08 ng·h/mL
accumulation in the skin relative to plasma ([4]; daily oral dosing at 250 mg, skin versus plasma of healthy volunteers): approximately 100,000 fold
mean skin concentration [4, 6]: 7130 ng/mg
mean skin concentration (molar equivalent) [4, 6]: 16.1 mM
